Test [1] deals with GAS strain JS95. As to the kind of experiment: Histopathology of soft-tissue lesions: neutrophil (PMN) recruitment in mice challenged with JS95. The class given is in vivo, Group A Streptococcus (GAS). The settings on record: 10^8 CFU JS95 with 100 μg of 70% pure peptide, 24 h after inoculation, FIG. 11C, 11D. The method, then: Haematoxylin and eosin stain of the soft-tissue lesions from a mouse challenged with 10^8 CFU of JS95 24 h after inoculation (11A-11B) in the presence of 100 μg of 70% pure peptide (11C, 11D). After 24 hours, skin samples were stained with hematoxiline and eosine and examined by microscopy at 50 (11A, 11C) and 400 (11B, 11D) fold magnification. There is extensive necrosis of fascia, massive presence of bacteria but no infiltration of neutrophils. There were no differences in the histopathology findings as determined in two mice in 4 different experiments.
The ability of GAS to cause lethal infection in ten-gram BALB/c female mice (Harlan Laboratories, Jerusalem, Israel) was assessed as described before [Ravins, M. et al. J. Infect. Dis. 182:1702-11 (2000)]. Briefly, 10^8 CFU of log-phase bacteria were washed twice in PBS, resuspended in 0.1 ml PBS and injected subcutaneously into the back of a mouse. The number of CFU injected was verified for each experiment by plating bacteria on THY-blood agar plates and counting. Each group contained 8 to 10 mice that were observed daily for death and changes in the lesions' properties such as size and depth, or were sacrificed at different times after inoculation for histopathological assessment. […] Aliquots were plated and streptococcal colonies were counted. […]

Test [2] can be described thus: Neutrophil influx in mice after injection of the peptide alone. The class given is in vivo. As to conditions: without bacteria. The source says: This is in a sharp contrast to the paucity of neutrophil influx in mice challenged with JS95 alone (FIG. 11B). Thus, a rapid recruitment of neutrophils appears necessary to confine GAS infection, subsequently preventing a systemic GAS dissemination.

For test [3], the system named is serotype M14, M1 and M3 strains. The test is described as follows: Neutrophil recruitment in mice challenged with different GAS serotypes. The class given is in vivo, Group A Streptococcus (GAS). The source says:
The absence (M1 and M3) or mutation (M14) of the gene encoding the SilCR pheromone in those GAS strains may eliminate a counter-regulatory mean to a GAS chemokine proteolysis, resulting in an increased virulence potential for invasive soft tissue infections.

In a further test the test system is GAS M1 strain 340. As to the kind of experiment: Murine NF model: lesions after challenge with M1 strain 340. As to conditions: co-injection of SilCR (50 μg, 90% purified) with 10^8 CFU M1 strain 340; FIG. 16C. The class given is in vivo, Group A Streptococcus (GAS). The method, then:
16C. mice infected with 10^8 CFU of M1 strain 340+SilCR (50 μg 90% purified) 48 h after inoculation.
The ability of GAS to cause lethal infection in ten-gram BALB/c female mice (Harlan Laboratories, Jerusalem, Israel) was assessed as described before [Ravins, M. et al. J. Infect. Dis. 182:1702-11 (2000)]. Briefly, 10^8 CFU of log-phase bacteria were washed twice in PBS, resuspended in 0.1 ml PBS and injected subcutaneously into the back of a mouse. The number of CFU injected was verified for each experiment by plating bacteria on THY-blood agar plates and counting. Each group contained 8 to 10 mice that were observed daily for death and changes in the lesions' properties such as size and depth, or were sacrificed at different times after inoculation for histopathological assessment. To determine the presence of bacteria in skin and spleen, mice were sacrificed; a wide area surrounding the skin lesions was excised, spleens were removed, and organs were homogenized in 10 or 1 ml of sterile PBS, respectively. Aliquots were plated and streptococcal colonies were counted. The Institutional Ethics Committee for animal care approved all animal procedures (approval number MD 79.17-4).
GAS of M1 and M3 serotypes are commonly associated with invasive disease and NF, and each lack the SilCR gene in their locus. […]

Test [4] relates to GAS strain JS95. As to the kind of experiment: Bacterial growth inhibition (disks on blood-agar plate; THY medium). Type of test: cell-based, Group A Streptococcus (GAS). How it is done:
One thousands to 1500 CFU of GAS strain JS95 were spread on the surface of a blood-agar plate, incubated at room temperature and disks with different concentrations of antibiotic (control) or peptide (25, 50 and 200 μg) were placed on the surface. The plates were incubated at 37° C. for 16 hours. Areas with no hemolysis (N. hemo.) indicate inhibition of GAS growth by antibiotics. Area with hemolysis (hemo.) indicates GAS growth in the presence of 200 μg of the peptide.
The inventors next examined whether the 17 amino acid peptide of the invention protects mice challenged with highly virulent strains by inhibition of bacterial growth. Different concentrations (1000-1500 CFU) of GAS strain JS95 were spread on the surface of a blood-agar plate and incubated at room temperature. Disks loaded with different concentrations of antibiotics (control) or peptide (25, 50 and 200 μg) were placed on the surface. […] 178:6087-6090 (1996); Havarstein, et al. J. Bacteriol. 179:6586-6584 (1997)] it is plausible that the peptide acts on a TCS. This in turn activates a signal transduction process in the bacteria leading to attenuation of virulence.

“Also recorded” adds a separate entry of the source.

“DIFKLVIDHISMKARKK (SilCR peptide) [17 amino acid synthetic peptide, predicted mature form of the pheromone peptide encoded by the SilCR ORF; used at 70% or 90% purity]”: the “recruitment of PMN / neutrophil infiltration at the site of infection” value is reported as “abundant neutrophil infiltration” in the test on GAS strain JS95 [1] and “significant recruitment of PMN” in the test with GAS strain JS95 [1] (listed as peptide). The neutrophil influx result in test [2] is reported as “did not stimulate neutrophil recruitment; also recorded: did not induce neutrophil influx”. The neutrophil recruitment entry in test [3] is “improved neutrophil recruitment”. Besides, the “lesion size and duration” value in the test on GAS M1 strain 340 is “significantly reduced size and duration”. Also, the “inhibition of GAS growth” value in the test with GAS strain JS95 [4] (THY medium and blood agar plates) is recorded as “does not inhibit GAS growth”. Besides, in the test on GAS strain JS95 [4] (disks with peptide up to 200 μg on blood-agar plate, 1000-1500 CFU JS95, 37° C. 16 hours, FIG. 10), the “bacterial growth around disk” value is recorded as “bacterial growth was observed”.

(Values after patent US20070071773A1, “Compositions and methods for the treatment and prophylaxis of infections caused by gram positive bacteria” (priority 2002, published 2007).)
